Measurements: ChEMBL document CHEMBL1144283, “Truncated azinomycin analogues intercalate into DNA” (Bioorg Med Chem Lett, 2005)

Key:
[1] = Inhibitory concentration measured against the prostate cancer cell line DU145; assay type: functional, cell-based, Homo sapiens; details: cancer cell lines
[2] = Inhibitory concentration measured against the prostate cancer cell line DU145; IA:Inactive; assay type: functional, cell-based, Homo sapiens; details: cancer cell lines

Row | IC50 [1] | IC50 [2] | Structure (SMILES)
1 | 50 nM |  | COc1cc(C(=O)O[C@H](C(N)=O)[C@]2(C)CO2)c2cccc(C)c2c1
2 |  | Not Active | COc1cc(C(=O)NCCN2CCCC(Cl)C2)c2cccc(C)c2c1 (stereo not drawn)
3 |  | Not Active | COc1cc(C(=O)NCCN2CCCC(O)C2)c2cccc(C)c2c1 (stereo not drawn)
